The results in this text go back to PubChem BioAssay (NCI).

Among the test systems are HT29 colon; M14 melanoma; MALME-3M melanoma; OVCAR-8 ovarian; UO-31 renal; SR leukemia; NCI/ADR-RES ovarian; OVCAR-4 ovarian; NCI-H522 lung; K-562 leukemia.
Holding throughout (assay): inhibition of tumour cell growth, NCI panel, 48 h

Values joined by “and” are separate entries in the source; they are usually repeats but may differ in a detail not shown here. Equal entries are not always repeated.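 Method: 48-hour compound exposure of cells in 96-well plates, five concentrations, linear interpolation of endpoints. Here, GI50 denotes the concentration required for 50% inhibition of growth. At the TGI there is no net growth.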

Regarding `Cc1ncc(-c2ccnc(Nc3ccc(S(C)(=O)=O)cc3)n2)n1C(C)C`, the GI50 with HT29 colon was 1.29 µM; in the experiment with M14 melanoma, 1.6 µM; with MALME-3M melanoma it was 2.56 µM; in the experiment with OVCAR-8 ovarian, 1.33 µM; with UO-31 renal it was 1 µM; with SR leukemia, 0.222 µM. The GI50 in the experiment on NCI/ADR-RES ovarian is 2.46 µM; with OVCAR-4 ovarian, 1.87 µM; in the experiment with NCI-H522 lung, 1.52 µM; with K-562 leukemia it was 1.59 µM. In addition, the TGI in the experiment on HT29 colon was above 10 µM; in the experiment with M14 melanoma it was 5.04 µM; in the experiment with MALME-3M melanoma, 6.04 µM; with OVCAR-8 ovarian, above 10 µM; with UO-31 renal it was above 10 µM; in the experiment with SR leukemia, 2.94 µM. Besides, the TGI in the experiment with NCI/ADR-RES ovarian was above 10 µM; with OVCAR-4 ovarian, above 8.73 µM; in the experiment on NCI-H522 lung, 5.29 µM; in the experiment on K-562 leukemia, above 10 µM.
For `Cn1c(C(C)(C)OC(=O)Oc2ccccc2)cnc1[N+](=O)[O-]`, the TGI was above 100 µM in the experiment with HT29 colon; above 100 µM in the experiment on M14 melanoma; above 100 µM in the experiment on MALME-3M melanoma; above 100 µM in the experiment with OVCAR-8 ovarian; above 100 µM in the experiment with UO-31 renal; 51.7 µM in the experiment on SR leukemia. Also, the TGI in the experiment with NCI/ADR-RES ovarian, with OVCAR-4 ovarian, in the experiment on NCI-H522 lung and with K-562 leukemia was above 100 µM throughout.
On to `CCN(Cc1cccc(F)c1F)c1ccc(CO)c(Cl)c1`, for which the GI50 is 3.83 µM in the experiment with HT29 colon; 17.9 µM in the experiment with M14 melanoma; 16 µM with MALME-3M melanoma; 14.2 µM with OVCAR-8 ovarian; 2.35 µM in the experiment on UO-31 renal; 18.8 µM with SR leukemia. The GI50 in the experiment on NCI/ADR-RES ovarian is 17.5 µM; in the experiment on OVCAR-4 ovarian, 0.127 µM; in the experiment on NCI-H522 lung it was 14.1 µM; in the experiment with K-562 leukemia, 0.683 µM. In addition, the TGI stood at 19 µM in the experiment on HT29 colon; 35.1 µM in the experiment with M14 melanoma; 34.2 µM in the experiment on MALME-3M melanoma; 48.3 µM in the experiment on OVCAR-8 ovarian; 32.1 µM in the experiment on UO-31 renal; 43.7 µM in the experiment on SR leukemia. The TGI in the experiment on NCI/ADR-RES ovarian came to 52.2 µM; in the experiment on OVCAR-4 ovarian, 1.24 µM; in the experiment with NCI-H522 lung it was 31.2 µM; in the experiment with K-562 leukemia, 29.3 µM.
Take `O=C(c1ccccc1O)c1[nH]c(Cl)c(Cl)c1-n1c(C(=O)c2ccccc2O)cc(Cl)c1Cl`: the GI50 was 2 µM in the experiment with HT29 colon; 1.46 µM and 1.44 µM in the experiment on M14 melanoma; 1.37 µM in the experiment on MALME-3M melanoma; 0.643 µM and 0.558 µM with OVCAR-8 ovarian; 2.6 µM and 2.02 µM in the experiment with UO-31 renal; 2.76 µM and 0.446 µM in the experiment with SR leukemia. The GI50 is 0.669 µM and 0.456 µM in the experiment with NCI/ADR-RES ovarian; 2.41 µM and 1.86 µM with OVCAR-4 ovarian; 0.317 µM and 0.363 µM with NCI-H522 lung; 0.409 µM in the experiment on K-562 leukemia. In addition, the TGI with HT29 colon was 12.8 µM; in the experiment with M14 melanoma it was 5.9 µM and 7.76 µM; in the experiment on MALME-3M melanoma, 5.18 µM; with OVCAR-8 ovarian it was 10.9 µM and 15.8 µM; with UO-31 renal, 11.4 µM and 6.95 µM; with SR leukemia it was 15.2 µM and 15.1 µM. Moreover, the TGI was 12.9 µM and 11.2 µM with NCI/ADR-RES ovarian; 19.4 µM and 10.7 µM with OVCAR-4 ovarian; 1.4 µM and 7.68 µM in the experiment on NCI-H522 lung; 16.8 µM in the experiment with K-562 leukemia.
With `O=Nc1c(O)c2ccccc2c2ccccc12`, the GI50 in the experiment on HT29 colon is 2.83 µM; in the experiment with M14 melanoma it was 0.446 µM; in the experiment on MALME-3M melanoma it was 1.47 µM; in the experiment with OVCAR-8 ovarian, 0.653 µM; in the experiment on UO-31 renal, 1.35 µM; in the experiment with SR leukemia it was 1.07 µM. The GI50 is 0.387 µM in the experiment with NCI/ADR-RES ovarian, 0.198 µM with OVCAR-4 ovarian, 1.26 µM with NCI-H522 lung and 0.505 µM in the experiment with K-562 leukemia. Also, the TGI in the experiment with HT29 colon was found to be 7.88 µM; in the experiment on M14 melanoma, 1.6 µM; in the experiment with MALME-3M melanoma, 3.03 µM; in the experiment with OVCAR-8 ovarian, 3.88 µM; in the experiment with UO-31 renal, 3.3 µM; with SR leukemia it was 64.2 µM. Moreover, the TGI is 2.95 µM with NCI/ADR-RES ovarian, 0.48 µM in the experiment on OVCAR-4 ovarian, 3.58 µM in the experiment on NCI-H522 lung and above 100 µM in the experiment on K-562 leukemia.
With `NC(CO)C(=O)NCC(=O)O` (centres undefined), the TGI in the experiment on HT29 colon, in the experiment with M14 melanoma, with MALME-3M melanoma, in the experiment on OVCAR-8 ovarian, in the experiment with UO-31 renal and in the experiment on SR leukemia was above 100 µM each time. Also, the TGI in the experiment on NCI/ADR-RES ovarian, in the experiment with OVCAR-4 ovarian, in the experiment with NCI-H522 lung and in the experiment on K-562 leukemia was above 100 µM throughout.
Regarding `CCN1C(=O)N(CC)C2C1NN=c1s/c(=C\c3cccc([N+](=O)[O-])c3)c(=O)n12` (centres undefined), the GI50 is 0.0387 µM in the experiment with HT29 colon; 0.0533 µM with M14 melanoma; 0.0812 µM in the experiment with MALME-3M melanoma; 0.172 µM in the experiment on OVCAR-8 ovarian; 0.321 µM in the experiment with UO-31 renal; 0.0471 µM in the experiment on SR leukemia. In addition, the GI50 is 0.0443 µM with NCI/ADR-RES ovarian, 0.567 µM in the experiment with OVCAR-4 ovarian, 0.0427 µM in the experiment on NCI-H522 lung and 0.0411 µM in the experiment on K-562 leukemia. Moreover, the TGI in the experiment on HT29 colon, with M14 melanoma, in the experiment on MALME-3M melanoma, in the experiment on OVCAR-8 ovarian, with UO-31 renal and in the experiment with SR leukemia was above 100 µM each time. The TGI in the experiment with NCI/ADR-RES ovarian was 0.703 µM; with OVCAR-4 ovarian, above 100 µM; with NCI-H522 lung, 3.4 µM; with K-562 leukemia, above 100 µM.
For `CCN(CC)CCCNc1[nH]ncc2c(C)c3nc4ccccc4c3cc12`, the GI50 was 0.362 µM in the experiment on HT29 colon; 1.16 µM with M14 melanoma; 0.918 µM in the experiment on MALME-3M melanoma; 0.926 µM with OVCAR-8 ovarian; 3.71 µM with UO-31 renal; 56.1 µM with NCI/ADR-RES ovarian. For the same compound, the GI50 in the experiment with OVCAR-4 ovarian is 0.397 µM; in the experiment on NCI-H522 lung, 0.217 µM; in the experiment on K-562 leukemia, 0.347 µM and 0.372 µM. Further, the TGI in the experiment on HT29 colon was 1.71 µM and 2.83 µM; in the experiment with M14 melanoma, 2.44 µM and 6.41 µM; in the experiment with MALME-3M melanoma, 2.34 µM and 3.81 µM; with OVCAR-8 ovarian it was 4.85 µM and 4.58 µM; with UO-31 renal, 14.6 µM and 22 µM; in the experiment on SR leukemia, 1.12 µM. Also, the TGI was 200 µM in the experiment with NCI/ADR-RES ovarian; 1.75 µM and 2.42 µM in the experiment with OVCAR-4 ovarian; 1.15 µM and 1.14 µM in the experiment with NCI-H522 lung; 1.79 µM and 9.54 µM in the experiment with K-562 leukemia.
